For test [1], the system named is Weri retinoblastoma cells. Briefly: Cancer cell proliferation, Weri. Format: cell-based. The note with it: >20% inhibition at 48-96 hours, MTT, SRB, luminescence or BrDU. The protocol: To determine the breadth of efficacy in cancers, we examined the efficacy of a range of TRPM7 inhibitors for their ability to inhibit cell proliferation in cancer cell lines. Representative figures are included as examples.
Cells (Table 1) were grown to 70% confluency, trypsinized, counted, and seeded in 96-well flat-bottom plates at a final concentration of 2.5×10^3-5.0×10^3 cells/well in growth media containing 5% FBS (Day 0). Other well sizes and cell densities were used successfully as well. Cells were allowed to incubate in growth media for 24 hours to allow for maximum adhesion. Treatment with the test agent began on Day 1 and continued for 72 hours either with or without retreatment. At the 72 hour time point, viable cell numbers are quantified by the CellTiter-Glo® cell viability assay as described above, or using standard MTT, SRB or BrDU assays. Experiments were repeated at least twice with the same concentrations to determine growth inhibitory activity.
Data Collection—For the cell proliferation studies, data from each experiment was collected and expressed as % Cell Growth using the following calculation: % Cell Growth=(ftest/fvehicle)×100 Where ftest is the luminescent signal of the tested sample, and fvehicle is the luminescence of the vehicle in which the drug is dissolved (or appropriate measure for the other viability/proliferation measures). Dose response graphs and IC50 values were generated using standard software using the following variable slope equation: […]

The next test has as its system H9c2 cells. Briefly: OGD-induced cell death in H9c2 cardiomyocytes, PI uptake. It counts as cell-based, rat. The note with it: for resilience to OGD: 0.05-5.0 μM; for protection against OGD-induced death, pre-treatment: pre-treatment before OGD. As for the experimental part:
The rat cardiomyoblast cell line H9c2 was obtained from the American Type Culture Collection (CRL-1446) and cultured in Dulbecco's Modified Eagle Medium supplemented with 10% (v/v) heat-inactivated fetal bovine serum and 1% antibiotic-antimycotic. Cells were grown in an atmosphere of […]/5% CO2 in a humidified incubator.
H9c2 cells were made anoxic by replacing the medium with de-oxygenated Ischemic buffer (in mM: 1.13 CaCl2, 5 KCl, 0.3 KH2PO4, 0.5 MgCl2, 0.4 MgSO4, 128 NaCl, 10 HEPES) and by transferring them to an anaerobic chamber (5% CO2, 10% H2, 85% N2) for 6 hrs or 16 hrs at 37° C. OGD was terminated by washing the cells with oxygenated glucose-containing Control buffer (in mM: 1.13 CaCl2, 5 KCl, 0.3 KH2PO4, 0.5 MgCl2, 0.4 MgSO4, 128 NaCl, 10 HEPES 10 Glucose). Cultures were maintained for another 2 hrs at 37° C. in a humidified 5% CO2 atmosphere. Normoxic cells were maintained in Control buffer for the duration of the experiment.
Cell death was determined by fluorescence measurements of PI (5 μg/ml) using a multiwell plate fluorescence scanner. The fraction of dead cells in each culture was calculated as: fraction dead=(Ft−F0)/Fmax where Ft=PI fluorescence at 2 hrs post-OGD, F0=initial PI fluorescence immediately after the OGD treatment, and Fmax=PI fluorescence of the same cultures following 20 mins incubation in 1% TritonX-100.
H9c2 cells were cultured and subjected to OGD as described supra. FIG. 71 panels A and B show the results of exposure to M21 or M5 for 24 hours following 6 hours of OGD. FIG. 71 panels C and D show the results of H9c2cells were treated with either 1 mM Mg^2+, 5 μM M6, M11 (acute treatment) during the anoxic and recovery periods, or 1 μM nifedipine. Results are presented as mean±SEM (n=4).

The target of a further test is TRPM7 (Mus musculus, UniProt Q923J1). Briefly: Whole-cell patch clamp recording of TRPM7 currents in HEK293 cells expressing TRPM7. The note with it: for TRPM7 currents, applied intracellularly: in intracellular recording fluid, final concentration 2 mM, 10-20 minutes; for TRPM7 currents, extracellular application: tested at 0.3, 1, 3, 10 and 30 μM. For orientation: Patch clamp records ionic current or voltage across a cell membrane.
Sequence of TRPM7 (Q923J1 whole entry): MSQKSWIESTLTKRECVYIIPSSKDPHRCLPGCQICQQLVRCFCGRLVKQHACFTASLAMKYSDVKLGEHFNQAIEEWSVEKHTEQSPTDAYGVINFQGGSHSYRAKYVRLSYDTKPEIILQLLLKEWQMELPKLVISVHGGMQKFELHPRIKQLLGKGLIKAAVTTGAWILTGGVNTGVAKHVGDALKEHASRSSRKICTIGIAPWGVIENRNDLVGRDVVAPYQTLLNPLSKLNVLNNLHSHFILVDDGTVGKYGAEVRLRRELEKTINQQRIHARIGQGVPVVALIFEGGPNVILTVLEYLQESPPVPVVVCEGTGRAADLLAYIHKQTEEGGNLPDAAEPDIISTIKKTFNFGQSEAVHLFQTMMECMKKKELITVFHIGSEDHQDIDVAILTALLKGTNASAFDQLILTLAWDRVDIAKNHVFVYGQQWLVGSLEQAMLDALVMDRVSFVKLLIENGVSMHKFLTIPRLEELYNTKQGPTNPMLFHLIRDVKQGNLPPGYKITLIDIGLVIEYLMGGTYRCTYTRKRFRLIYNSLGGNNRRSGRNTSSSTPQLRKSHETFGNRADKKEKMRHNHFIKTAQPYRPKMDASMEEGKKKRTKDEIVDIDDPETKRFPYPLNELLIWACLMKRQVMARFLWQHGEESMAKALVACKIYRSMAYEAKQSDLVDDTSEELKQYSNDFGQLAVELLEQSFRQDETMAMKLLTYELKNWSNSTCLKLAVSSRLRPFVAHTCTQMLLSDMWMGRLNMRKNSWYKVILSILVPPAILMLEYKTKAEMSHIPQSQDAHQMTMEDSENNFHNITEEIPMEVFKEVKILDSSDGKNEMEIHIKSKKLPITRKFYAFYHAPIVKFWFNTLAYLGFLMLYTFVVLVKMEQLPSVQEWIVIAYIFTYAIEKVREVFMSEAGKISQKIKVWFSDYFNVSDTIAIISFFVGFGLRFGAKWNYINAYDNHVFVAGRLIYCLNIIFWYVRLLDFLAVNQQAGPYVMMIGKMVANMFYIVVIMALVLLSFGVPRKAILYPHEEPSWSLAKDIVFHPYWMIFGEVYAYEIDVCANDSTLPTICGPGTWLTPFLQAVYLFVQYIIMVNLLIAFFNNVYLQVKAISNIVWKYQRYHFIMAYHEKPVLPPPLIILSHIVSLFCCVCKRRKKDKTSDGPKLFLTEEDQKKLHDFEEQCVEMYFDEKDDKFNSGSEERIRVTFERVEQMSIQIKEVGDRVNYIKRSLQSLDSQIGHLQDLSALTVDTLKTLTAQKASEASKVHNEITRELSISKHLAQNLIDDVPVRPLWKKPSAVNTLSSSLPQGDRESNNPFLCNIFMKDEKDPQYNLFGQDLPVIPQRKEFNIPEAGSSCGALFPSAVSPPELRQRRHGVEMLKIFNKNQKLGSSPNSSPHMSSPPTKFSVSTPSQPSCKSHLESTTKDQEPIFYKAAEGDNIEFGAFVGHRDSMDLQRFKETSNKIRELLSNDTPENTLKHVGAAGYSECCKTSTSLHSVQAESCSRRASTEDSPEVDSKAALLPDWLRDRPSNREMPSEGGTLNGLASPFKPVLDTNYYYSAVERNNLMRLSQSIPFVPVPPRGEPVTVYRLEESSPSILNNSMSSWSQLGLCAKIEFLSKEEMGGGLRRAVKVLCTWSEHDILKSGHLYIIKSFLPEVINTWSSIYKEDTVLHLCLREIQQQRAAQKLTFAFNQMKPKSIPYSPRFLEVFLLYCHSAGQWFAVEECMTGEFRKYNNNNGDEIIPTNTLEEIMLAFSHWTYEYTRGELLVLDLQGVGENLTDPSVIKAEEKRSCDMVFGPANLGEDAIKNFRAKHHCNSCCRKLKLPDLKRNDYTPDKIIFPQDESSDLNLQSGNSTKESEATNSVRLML

The next test concerns retinal explants. Briefly: OGD in cultured ex vivo retinal explants. The following applies: 1 hr OGD. It counts as cell-based, rat. The protocol:
The ability of TRPM7 inhibitors to protect other types of cell cultures following exposure to anoxia, including non-neuronal cell cultures, has also been tested. In general, cultures of growing cells are exposed to a 1-6 hour period of anoxia, followed by addition of a TRPM7 at a range of concentrations upon removal from anoxic conditions. […] This implies that TRPM7 inhibitors may be useful both as a treatment for anoxic damage to patients presenting symptoms of a disorder associated with anoxic damage, or as a preventative measure. Such preventative measures can be chronic, such as treatment to protect against damage from heart attacks or strokes, or acute, to be given prior to or during surgical procedures, which may include but not be limited to procedures that involve endovascular invasion and have the possibility of dislodging material that may block blood flow through arteries. Other types of preventative measures can include the reduction of anoxic damage associated with cardiovascular issues (heart attack, myocardial infarction, acute ischemic attacks, atrial fibrillation, etc), brain disorders (stroke, neurotrauma, etc), diabetic disorders (blindness, deafness, neuropathy), retinal/eye disorders (glaucoma, macular degeneration, blindness), aural disorders (deafness, progressive deafness, hearing loss), muscle disorders (weakness, myodegenerative disease, disorders associated with mitochondrial depletion), and organ disorders (kidney, lung, liver disorders associated with ischemia or anoxic damage).
Acute and chronic retinal ischemia are major causes of blindness. Retinal damage from glaucoma, also termed “slow excitotoxicity” afflicts millions of people each year and is the second leading cause of blindness worldwide (after cataracts). Diabetic retinopathy is also very common, afflicting about 40% of diabetics and, while less commonly producing complete blindness, is a leading cause of visual impairment. The retina is an extension of the CNS, and was the first organ in which excitotoxicity was described. […]

The test system of test [2] is primary cultured mouse cortical cells. Briefly: OGD-induced anoxic death in murine primary neuronal cell cultures, PI fluorescence. It counts as cell-based. The following applies: 1 to 3 hours OGD, with or without MCN, applied prior to or following OGD. The protocol:
TRPM7 inhibitors were tested for their ability to reduce anoxic death in murine primary neuronal cell cultures subjected to 1 to 3 hours of OGD. This assay was generally performed as described by Aarts et al (2003). In brief, mixed cortical cultures enriched with neurons (85%) were prepared and used for experiments after 12-14 days in vitro. The cultures were transferred to an anaerobic chamber containing 5% CO2, 10% H and 85% N2. Cultures were washed 3× with 500 μl deoxygenated glucose free bicarbonate solution and maintained anoxic for the appropriate duration at 37° C. OGD was terminated by washing the cultures with oxygenated glucose-containing bicarbonate solution, and the cultures were further maintained 1-24 hours in a humidified 5% CO2 atmosphere. Cell death wash generally measured by fluorescence measurement of PI (50 ug/ml) in a multiwall plate reader (CytoFluor II, Perseptive Biosystems).

The text below walks through data of patent US8680137B2, “Agents and methods for treating ischemic and other diseases” (Nono Inc., priority 2009, dated 2014).

Structures are written as SMILES. Entries after “also recorded” stand apart in the source; their conditions may differ.

Procedure for TRPM7: Whole-cell patch clamp recordings were used essentially as described to test the TRPM7 inhibitors in HEK293 cells, H9c2 cardiomyocytes and cultured neurons. Each test compound was tested at 0.3, 1, 3, 10 and 30 μM, or as high as solubility permits.
To assess whether the M-compounds were inhibiting TRPM7 currents from an intracellular or extracellular location, M21 and M6 were dissolved in DMSO at 10 mM as stock, then diluted into intracellular recording fluid (ICF) to final concentration of 2 mM Immediately start recording of the TRPM7 like currents to RAMP change of membrane potentials after making the whole cell. Recording lasts for 10-20 minutes to compare the currents between control and test group.

With `COc1cc2c(cc1OC)C(c1sc3ccccc3c1Cl)=NCC2` [Compound M6], the “Demonstrated Reduction of Proliferation at or below 10 μM Inhibitor concentration” value in test [1] is listed as “Weri retinoblastoma”. In the test with H9c2 cells, the “resilience to OGD” value is reported as “enhanced their resilience to OGD” and the “protection against OGD-induced death, pre-treatment” value is recorded as “comparable result to treatment after the onset of anoxia”. Also, at TRPM7, the “TRPM7 currents, applied intracellularly” value is “do not affect TRPM7 currents” and the “TRPM7 currents, extracellular application” value is on record as “reduces current through the TRPM7 channel”. The “TRPM7 currents, extracellular application” value at TRPM7 (listed as 6) was “inhibited ion currents through TRPM7”. In addition, the “survival / resilience following exposure to OGD” value in the test with retinal explants is given as “enhanced their resilience to OGD”. In test [2], the “protection from anoxic death after OGD” value is recorded as “protection of cultures from anoxic death is observed”.
Turning to `Cc1c(Cc2ccc(Cl)c(Cl)c2)c(=O)oc2cc(O)ccc12` [Compound M21], in test [1], the “Demonstrated Reduction of Proliferation at or below 10 μM Inhibitor concentration” value was “Weri retinoblastoma”. In the test with H9c2 cells, the “resilience to OGD” value is recorded as “enhanced their resilience to OGD”. Moreover, at TRPM7, the “TRPM7 currents, applied intracellularly” value is on record as “do not affect TRPM7 currents” and the “TRPM7 currents, extracellular application” value is “highest level of inhibition”. For the same compound, the “TRPM7 currents, extracellular application” value at TRPM7 (listed as 21) was “inhibited ion currents through TRPM7”. The “survival / resilience following exposure to OGD” value in the test with retinal explants is “promote survival; also recorded: enhanced their resilience to OGD”. The “protection from anoxic death after OGD” value in test [2] is “protection of cultures from anoxic death is observed”.
With `O=C(Nc1ccc(F)cc1)C(Sc1ccc(Cl)cc1)c1ccccc1` (stereo not shown) [Compound M11], the “Demonstrated Reduction of Proliferation at or below 10 μM Inhibitor concentration” value in test [1] is reported as “Weri retinoblastoma”. Moreover, in the test on H9c2 cells, the “resilience to OGD” value is given as “enhanced their resilience to OGD” and the “protection against OGD-induced death, pre-treatment” value is “less robust rescue of the OGD-induced death”. At TRPM7, the “TRPM7 currents, extracellular application” value is on record as “highest level of inhibition”. For the same compound, the “TRPM7 currents, extracellular application” value on TRPM7 (listed as 11) is recorded as “inhibited ion currents through TRPM7”. Moreover, the “survival / resilience following exposure to OGD” value in the test on retinal explants is listed as “promote survival”. The “protection from anoxic death after OGD” value in test [2] is given as “protection has been demonstrated”.
